Converted amounts (≈) assume the structure as drawn. “Also recorded” adds a separate entry of the source. Read-outs that look alike come from different tables or passages of the source.

The subject of series [1] is Staphylococcus aureus. As to the kind of experiment: broth microdilution assay (MIC). The series is classed as cell-based. Conditions: S. aureus, read-out: minimum inhibitory concentration (MIC). The protocol:
FIG. 3D illustrates the determination of the minimal inhibitory concentrations (MICs) of the red and blue 1,4 benzoquinones against Staphylococcus aureus. The MICs determined by the broth microdilution assay are 4 μg/mL for the red 1,4 benzoquinone and 6 μg/mL for the blue 1,4 benzoquinone. Ampicillin was used as a positive control. Each result is reported as the mean±SD.
This difference was confirmed using a broth microdilution assay (FIG. 3D). The minimum inhibitory concentration (MIC) for S. aureus growth was 4 μg/mL for the red 1,4 benzoquinone and 6 μg/mL for the blue 1,4 benzoquinone (FIG. 3D, Table 1). Ampicillin (MIC=0.5 μg/mL) was used as a positive control (ESCMID Eo (2003) Clin. Microbiol. Infect. 9: ix-xv; Pieterse et al., (2010) Brazil. J. Microbiol. 41: 133-145). These compounds were bactericidal at their MICs, killing 90% of S. aureus in 6 h and 99.9% in 24 h (Table 2).
Background: Broth dilution looks for growth in wells or tubes with falling amounts of substance.

For series [2], the system named is Staphylococcus aureus ATCC 29213. As to the kind of experiment: Minimum inhibitory concentration, Table 1, strain ATCC 29213. On sensitive/resistant (growth): key: S Sensitive (did not grow the crop); R resistant (bacterial growth). The series is classed as cell-based. To be noted: for sensitive/resistant (growth): ATCC 29213; for MIC: ATCC29213, Staphylococcus aureus ATCC 29213.
Series [3] concerns Staphylococcus aureus. As to the kind of experiment: Time-kill assay. To be noted: for killing of S. aureus: at their MICs. It counts as cell-based.
Series [4] deals with Mycobacterium tuberculosis MDR strain. As to the kind of experiment: colony-forming units after treatment at the MIC. The series is classed as cell-based.
The subject of series [5] is Mycobacterium tuberculosis. It counts as cell-based. To be noted: electron microscopy.
A short description of series [6]: intratracheal treatment of healthy mice, lung histology. It counts as in vivo. To be noted: 8 μg intratracheally for one month. The method, then:
FIGS. 21C-21F illustrate representative micrographs of lung (hematoxylin-eosin staining, 250× magnification) from the untreated group (FIG. 21C) showing extensive areas of pneumonia (asterisk). […] A representative micrograph of a healthy mouse treated intratracheally for one month with 8 μg of the blue 1,4 benzoquinone is shown in FIG. 21E.
The bactericidal activity of the blue compound was tested against progressive pulmonary tuberculosis using an experimental infection model in BALB/c mice. […] This same dose was administered intratracheally to healthy mice for one month, after which they were sacrificed, and their lungs examined.

The test system of the next series is TE671 muscle cells. As to the kind of experiment: detection of intracellular reactive oxygen species with DCFH-DA. The series is classed as cell-based. Conditions: 25 μM, 6 hours. The method, then:
FIG. 16A illustrates the detection of intracellular reactive oxygen species (ROS) using the oxidant-sensing probe dichloro-dihydro-fluorescein diacetate (DCFH-DA). TE671 muscle cells were used. Cells were cultured according to the ATCC guidelines. Before treatment, cells were incubated for one hour with a 10 μM solution of DCFH-DA. After the cells were washed 3×PBS, either the red or blue 1,4 benzoquinone was administered at a concentration of 25 μM. Cells were then incubated at 37° C. in 5% CO2 for 6 hours. Following the incubation period, cells were harvested and evaluated with a Zeiss Axioskop fluorescence microscope using a 485-nm excitation and 530-nm emission filter combination. […] Treatment with hydrogen peroxide (50 μM) was used as positive control.

Turning to `COC1=CC(=O)C(SC)=C(SC)C1=O` [blue 1,4 benzoquinone, 5-methoxy-2,3-bis(methylthio)cyclohexa-2,5-diene-1,4-dione], the MIC came to 6 µg/mL (≈ 26.1 µM) with Staphylococcus aureus [1] and 1 µg/mL (≈ 4.34 µM) in series [2]. The “sensitive/resistant (growth)” value is on record as “R” in series [2] (0.5 μg/ml); “S” in series [2] (1 μg/ml); “S” in series [2] (2 μg/ml); “S” in series [2] (4 μg/ml); “S” in series [2] (8 μg/ml); “S” in series [2] (16 μg/ml). Besides, the “sensitive/resistant (growth)” value in series [2] (32 μg/ml) and in series [2] (64 μg/ml) was “S” in each case. In addition, the “Colony-forming Units (CFU)” value in the series with Staphylococcus aureus [3] (0 hr incubation, 2 × MIC) is reported as 339 Colony-forming units per plate; in the series on Staphylococcus aureus [3] (0 hr incubation, MIC), 352 Colony-forming units per plate; with Staphylococcus aureus [3] (6 hr incubation, 2 × MIC) it was 21 Colony-forming units per plate; with Staphylococcus aureus [3] (6 hr incubation, MIC) it was 45 Colony-forming units per plate; in the series with Staphylococcus aureus [3] (12 hr incubation, 2 × MIC), 2 Colony-forming units per plate; in the series with Staphylococcus aureus [3] (12 hr incubation, MIC) it was 1 Colony-forming units per plate. In addition, the “Colony-forming Units (CFU)” value with Staphylococcus aureus [3] (24 hr incubation, 2 × MIC) was 0 Colony-forming units per plate; with Staphylococcus aureus [3] (24 hr incubation, MIC), 2 Colony-forming units per plate. The “killing of S. aureus” value in the series with Staphylococcus aureus [3] (in 6 h) amounted to 90%; with Staphylococcus aureus [3] (in 24 h), 99.9%. Further, the “killing in comparison to the inoculum bacteria concentration” value in series [4] is “more than 90%”. The “ultrastructural changes in Mycobacterium tuberculosis bacilli” value in series [5] was “ultrastructural changes were promoted”; in series [5] (listed as blue benzoquinone), “ultrastructural changes”. Besides, the “pulmonary histology of healthy mice” value in series [6] is recorded as “The pulmonary histology is normal, with the exception of occasional mild inflammatory infiltrates found around venules; also recorded: only minor inflammatory infiltrates found around the venules”. The “lung fibrosis in healthy mice” value in series [6] (trichrome Masson staining) was “No fibrosis was seen”. In addition, the “intracellular reactive oxygen species (oxidation of DCFH-DA)” value with TE671 muscle cells is listed as “Intracellular oxidation of the DCFH-DA in cells treated with the 1,4 benzoquinones was observed”.

`COC1=CC(=O)C(SC)=C(OC)C1=O` [red 1,4 benzoquinone, 3,5-dimethoxy-2-(methylthio)cyclohexa-2,5-diene-1,4-dione]: the MIC is 4 µg/mL (≈ 18.7 µM) in the series with Staphylococcus aureus [1] and 1 µg/mL (≈ 4.67 µM) in series [2]. Also, the “sensitive/resistant (growth)” value is on record as “R” in series [2] (0.5 μg/ml); “S” in series [2] (1 μg/ml); “S” in series [2] (2 μg/ml); “S” in series [2] (4 μg/ml); “S” in series [2] (8 μg/ml); “S” in series [2] (16 μg/ml). The “sensitive/resistant (growth)” value in series [2] (32 μg/ml) and in series [2] (64 μg/ml) was “S” throughout. The “Colony-forming Units (CFU)” value is 311 Colony-forming units per plate in the series with Staphylococcus aureus [3] (0 hr incubation, 2 × MIC); 298 Colony-forming units per plate in the series with Staphylococcus aureus [3] (0 hr incubation, MIC); 9 Colony-forming units per plate in the series with Staphylococcus aureus [3] (6 hr incubation, 2 × MIC); 22 Colony-forming units per plate in the series with Staphylococcus aureus [3] (6 hr incubation, MIC); 0 Colony-forming units per plate with Staphylococcus aureus [3] (12 hr incubation, 2 × MIC); 3 Colony-forming units per plate in the series on Staphylococcus aureus [3] (12 hr incubation, MIC). Further, the “Colony-forming Units (CFU)” value with Staphylococcus aureus [3] (24 hr incubation, 2 × MIC) is on record as 0 Colony-forming units per plate; in the series on Staphylococcus aureus [3] (24 hr incubation, MIC) it was 0 Colony-forming units per plate. Besides, the “killing of S. aureus” value in the series with Staphylococcus aureus [3] (in 6 h) is listed as 90%; in the series with Staphylococcus aureus [3] (in 24 h), 99.9%. Further, the “intracellular reactive oxygen species (oxidation of DCFH-DA)” value with TE671 muscle cells was “Intracellular oxidation of the DCFH-DA in cells treated with the 1,4 benzoquinones was observed”.

The values above are taken from US20210214303A1, “SCORPION VENOM BENZOQUINONE DERIVATIVES AND USES THEREOF” (priority 2018, published 2021).
